PubChem BioAssay AID330 (DTP/NCI, 2004)
Toxic doses and inconclusive results are not listed. Rule for the calls: active = survival T/C of 150% or more; inactive = T/C below 125% in these data.

System: P388 leukemia ip, CD2F1 mice, survival T/C
Experiment: NCI In Vivo Anticancer Drug Screen. Data for tumor model P388 Leukemia (intraperitoneal) in CD2F1 (CDF1) mice
Settings: endpoint: median survival time, higher = longer survival
In short: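 Mice carrying the transplanted tumor received test compound or vehicle. Survival was recorded in each group, and the value is the treated-group measurement divided by that of the vehicle-treated control group.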

[1] = dose: 50.0 mg/kg/injection, schedule: Q01DX009 (ip), vehicle: saline with Tween-80
[2] = dose: 100.0 mg/kg/injection, schedule: Q01DX009 (ip), vehicle: saline with Tween-80
[3] = dose: 200.0 mg/kg/injection, schedule: Q01DX009 (ip), vehicle: saline with Tween-80
[4] = dose: 50.0 mg/kg/injection, schedule: Q01DX009 (ip), vehicle: saline
[5] = dose: 100.0 mg/kg/injection, schedule: Q01DX009 (ip), vehicle: saline

Measured: T/C

O=C1NN=C2CCCCCCCCCCC12Cl (stereo unspecified)
inactive: [1] 108 % of control | [2] 106 % of control | [3] 106 % of control

NC(CCC(=O)NC(CS)C(=O)O)C(=O)O (stereo unspecified)
inactive: [4] 100 % of control | [5] 111 % of control

O=C(NC(Cc1ccccc1F)C(=O)O)c1ccccc1 (stereo unspecified)
inactive: dose: 25.0 mg/kg/injection, schedule: Q01DX009 (ip), vehicle: other 98 % of control | dose: 50.0 mg/kg/injection, schedule: Q01DX009 (ip), vehicle: other 105 % of control | dose: 100.0 mg/kg/injection, schedule: Q01DX009 (ip), vehicle: other 98 % of control

Cc1cc2cc3c(C)cc(=O)oc3c(C)c2o1
inactive: [2] 118 % of control | [3] 112 % of control | dose: 400.0 mg/kg/injection, schedule: Q01DX009 (ip), vehicle: saline with Tween-80 102 % of control

C[C@]12CCC(=O)C=C1CC[C@@H]1[C@@H]2[C@@H](O)C[C@@]2(C)[C@H]1CC[C@]2(C)O
inactive: dose: 25.0 mg/kg/injection, schedule: Q01DX009 (ip), vehicle: saline with Tween-80 90 % of control | [1] 100 % of control | [2] 100 % of control | dose: 100.0 mg/kg/injection, schedule: Q04DX003 (ip), vehicle: saline with Tween-80 100 % of control | dose: 200.0 mg/kg/injection, schedule: Q04DX003 (ip), vehicle: saline with Tween-80 100 % of control | dose: 400.0 mg/kg/injection, schedule: Q04DX003 (ip), vehicle: saline with Tween-80 100 % of control

CCOC(CCl)(NC(C)=O)C(=O)OC (stereo unspecified)
inactive: dose: 100.0 mg/kg/injection, schedule: Q01DX001 (ip), vehicle: Klucel (hydroxypropylcellulose) (HPC) 104 % of control | dose: 200.0 mg/kg/injection, schedule: Q01DX001 (ip), vehicle: Klucel (hydroxypropylcellulose) (HPC) 100 % of control | dose: 400.0 mg/kg/injection, schedule: Q01DX001 (ip), vehicle: Klucel (hydroxypropylcellulose) (HPC) 106 % of control

Nc1ncnc2c1c(C(=O)O)cn2C1OC(CO)C(O)C1O (stereo unspecified)
inactive: dose: 25.0 mg/kg/injection, schedule: Q04DX003 (ip), vehicle: saline with Tween-80 120 % of control | [1] 118 % of control | [2] 86 % of control

Cc1cc(C(O)(C(F)(F)F)C(F)(F)F)c2c(c1)C(C(F)(F)F)(C(F)(F)F)OC(C)(C)N2
inactive: dose: 50.0 mg/kg/injection, schedule: Q01DX005 (ip), vehicle: Klucel (hydroxypropylcellulose) (HPC) 100 % of control | dose: 100.0 mg/kg/injection, schedule: Q01DX005 (ip), vehicle: Klucel (hydroxypropylcellulose) (HPC) 100 % of control | dose: 200.0 mg/kg/injection, schedule: Q01DX005 (ip), vehicle: Klucel (hydroxypropylcellulose) (HPC) 101 % of control

C1CCN(c2c3c(nc4nnnn24)CCC3)CC1
inactive: [4] 96 % of control | [5] 87 % of control | dose: 200.0 mg/kg/injection, schedule: Q01DX009 (ip), vehicle: saline 90 % of control

c1ccc(N2CCCN2c2ccccc2)cc1
inactive: dose: 100.0 mg/kg/injection, schedule: Q04DX002 (ip), vehicle: saline with Tween-80 101 % of control | dose: 200.0 mg/kg/injection, schedule: Q04DX002 (ip), vehicle: saline with Tween-80 99 % of control | dose: 400.0 mg/kg/injection, schedule: Q04DX002 (ip), vehicle: saline with Tween-80 98 % of control

N#CC1(O)CCCCC1
inactive: dose: 2.5 mg/kg/injection, schedule: Q01DX009 (ip), vehicle: saline with Tween-80 100 % of control | dose: 5.0 mg/kg/injection, schedule: Q01DX009 (ip), vehicle: saline with Tween-80 104 % of control | dose: 10.0 mg/kg/injection, schedule: Q01DX009 (ip), vehicle: saline with Tween-80 104 % of control

CCCCCCCCCC[N+](C)(C)CCO
inactive: dose: 12.5 mg/kg/injection, schedule: Q01DX009 (ip), vehicle: saline 118 % of control | dose: 25.0 mg/kg/injection, schedule: Q01DX009 (ip), vehicle: saline 109 % of control | [4] 116 % of control

[Cl][Ge]([c]1ccccc1)[c]1ccccc1.[Cl][Ge]([c]1ccccc1)[c]1ccccc1
inactive: dose: 3.12 mg/kg/injection, schedule: Q01DX005 (ip), vehicle: Klucel (hydroxypropylcellulose) (HPC) 111 % of control | dose: 6.25 mg/kg/injection, schedule: Q01DX005 (ip), vehicle: Klucel (hydroxypropylcellulose) (HPC) 116 % of control | dose: 12.5 mg/kg/injection, schedule: Q01DX005 (ip), vehicle: Klucel (hydroxypropylcellulose) (HPC) 106 % of control
